Among the data in patent publication US20250304537A1 (Repare Therapeutics Inc., priority 2022, published 2025) are IC50 values, retold here.

Broadly, the IC50 is the point on the concentration scale where inhibition reaches its midpoint.

This assay relates to PKMYT1 (CDK1 pThr14) in FUOV1 cells. The assay can be described thus: PKMYT1 cell-based activity assay, CDK1 pThr14 AlphaLISA in FUOV1 cells. Conditions: 2 h, 2 h compound incubation, read-out: FUOV-1 CDK1 pThr14 IC50. Put shortly:
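IC50 was derived from AlphaLISA signal (excitation 680 nm, emission 615 nm) for phospho-Thr14 CDK1 in lysates. The detection antibodies were rabbit anti-pThr14 and mouse anti-total CDK1, each at 5 nM. FUOV1 ovarian cells were exposed to compound for 2 hours before lysis.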
On the technique in general: In Alpha technology, singlet oxygen from a donor bead excites a nearby acceptor bead.
For `Cc1ccc2[nH]ncc2c1-c1nc(-c2ccc(F)cc2Nc2cncc(F)c2)nc(C(N)=O)c1N` [Compound 665], the IC50 was determined as 41 nM. In the case of `Cc1cncc(Nc2cc(F)ccc2-c2nc(C(N)=O)c(N)c(-c3c(C)ccc4[nH]ncc34)n2)c1` [Compound 666], the 50% inhibitory concentration (IC50) worked out at 38 nM. Next, `Cc1ccc2[nH]ncc2c1-c1nc(-c2cccnc2NC[C@H]2CCCOC2)nc(C(N)=O)c1N` [Compound 667]: 42 nM; `Cc1ccc2[nH]ncc2c1-c1cc2c(oc3ccc(N[C@H]4CCOC4)nc32)c(C(N)=O)c1N` [Compound 668]: 94 nM. Next, `Cc1ccc2[nH]ncc2c1-c1nc(-c2cnncc2NCC(F)(F)F)nc(C(N)=O)c1N` [Compound 669]: more than 10000 nM; `Cc1ccc2[nH]ncc2c1-c1nc(-c2cccnc2NC[C@@H]2CCCO2)nc(C(N)=O)c1N` [Compound 670]: 198 nM; `Cc1cccnc1Nc1cc(F)ccc1-c1nc(C(N)=O)c(N)c(-c2c(C)ccc3[nH]ncc23)n1` [Compound 671]: 164 nM.

Regarding `Cc1cccnc1Nc1ncc(F)cc1-c1nc(C(N)=O)c(N)c(-c2c(C)ccc3[nH]ncc23)n1` [Compound 672], the half-inhibitory concentration (IC50) worked out at 33 nM. Next, `Cc1ccc2[nH]ncc2c1-c1nc(-c2ccc(F)cc2Nc2cncc(C#N)c2)nc(C(N)=O)c1N` [Compound 673]: 1710 nM. The figure for `Cc1ccc2[nH]ncc2c1-c1nc(-c2ccc(F)cc2Nc2cccnc2C#N)nc(C(N)=O)c1N` [Compound 674] is 27 nM.

For the compound `Cc1ccc2[nH]ncc2c1-c1nc(-c2cccnc2NC2CC(F)(F)C2)nc(C(N)=O)c1N` [Compound 675], the concentration for half-maximal inhibition (IC50) was determined as 53 nM. The figure for `Cc1ccc2[nH]ncc2c1-c1nc(-c2cccnc2NCC2COC2)nc(C(N)=O)c1N` [Compound 676] is more than 10000 nM. The figure for `Cc1cc(F)c2[nH]ncc2c1-c1nc(-c2cc(F)ccc2Nc2ncc(F)cn2)nc(C(N)=O)c1N` [Compound 677] is 451 nM; for `Cc1ccc2[nH]ncc2c1-c1nc(-c2cc(F)cnc2NC2CC(F)(F)C2)nc(C(N)=O)c1N` [Compound 678] it is 31 nM.

Regarding `Cc1ccc2[nH]ncc2c1-c1nc(-c2cc(F)cnc2NC(C)C)nc(C(N)=O)c1N` [Compound 679], the IC50 amounted to 13 nM. Next, `Cc1ccc2[nH]ncc2c1-c1nc(-c2cc(F)cnc2NC2CC2)nc(C(N)=O)c1N` [Compound 680]: 14 nM. On to `Cc1ccc2[nH]ncc2c1-c1nc(-c2cccnc2NC2CCCC2)nc(C(N)=O)c1N` [Compound 681], for which the IC50 was found to be 11 nM. Next, `Cc1ccc2[nH]ncc2c1-c1nc(-c2cccnc2NCC(C)(C)O)nc(C(N)=O)c1N` [Compound 682]: 83 nM; `Cc1ccc2[nH]ncc2c1-c1nc(-c2cc(F)cnc2NCC(C)(C)O)nc(C(N)=O)c1N` [Compound 683]: 65 nM; `[2H]C([2H])([2H])c1ccc2[nH]ncc2c1-c1nc(-c2cc(F)ccc2Nc2ncc(F)cn2)nc(C(N)=O)c1N` [Compound 684]: 122 nM.

For `Cc1ccc2[nH]ncc2c1-c1nc(-c2cc(F)cnc2N[C@@H]2CCOC2)nc(C(N)=O)c1N` [Compound 685], the IC50 stood at 12 nM. For `Cc1ccc2[nH]ncc2c1-c1nc(-c2cc(F)cnc2NC2CCOCC2)nc(C(N)=O)c1N` [Compound 686], the IC50 was 10 nM.

For `Cc1ccc(-c2nc(C(N)=O)c(N)c(-c3c(C)ccc4[nH]ncc34)n2)c(Nc2ncccc2C)n1` [Compound 687], the IC50 worked out at 3 nM. The figure for `Cc1cncc(Nc2nc(C)ccc2-c2nc(C(N)=O)c(N)c(-c3c(C)ccc4[nH]ncc34)n2)n1` [Compound 688] is 180 nM; for `Cc1ccc(-c2nc(C(N)=O)c(N)c(-c3c(C)ccc4[nH]ncc34)n2)c(Nc2nc(C)cnc2C)n1` [Compound 689] it is 6 nM.

Consider `Cc1ccc2[nH]ncc2c1-c1nc(-c2cc(F)cnc2N[C@H]2C[C@H](O)C2)nc(C(N)=O)c1N` [Compound 690], for which the IC50 is 16 nM. For `Cc1ccc2[nH]ncc2c1-c1nc(-c2cc(F)cnc2NCC2(O)CCC2)nc(C(N)=O)c1N` [Compound 691], the IC50 worked out at 228 nM. Next, `Cc1ccc2[nH]ncc2c1-c1nc(-c2cc(F)cnc2NCC2(O)CC2)nc(C(N)=O)c1N` [Compound 692]: 195 nM; `Cc1ccc2[nH]ncc2c1-c1nc(-c2ccc(F)cc2Nc2cncnc2C(=N)N)nc(C(N)=O)c1N` [Compound 694]: 423 nM.

On to `Cc1ccc2[nH]ncc2c1-c1nc(-c2ccc(F)cc2Nc2cncnc2C)nc(C(N)=O)c1N` [Compound 695], for which the IC50 amounted to 41 nM. Next, `COc1cncc(Nc2cc(F)ccc2-c2nc(C(N)=O)c(N)c(-c3c(C)ccc4[nH]ncc34)n2)n1` [Compound 696]: 69 nM; `Cc1ccc(F)c(Nc2ncccc2-c2nc(C(N)=O)c(N)c(-c3c(C)ccc4[nH]ncc34)n2)n1` [Compound 697]: 2 nM; `Cc1ccc2[nH]ncc2c1-c1nc(-c2ccc(F)cc2Nc2cc(C3(C#N)CC3)ccn2)nc(C(N)=O)c1N` [Compound 698]: 1610 nM. Regarding `Cc1ccc2[nH]ncc2c1-c1nc(-c2ccc(F)cc2Nc2cnccc2C#N)nc(C(N)=O)c1N` [Compound 699], the IC50 worked out at 48 nM.

As for `Cc1ccc(O)c(C)c1-c1nc(-c2cc(F)cnc2NCC(F)F)nc(C(N)=O)c1N` [Compound 700, 5-amino-2-(2-((2,2-difluoroethyl)amino)-5-fluoropyridin-3-yl)-6-(3-hydroxy-2,6-dimethylphenyl)pyrimidine-4-carboxamide], the IC50 came out at 9 nM.

With `Cc1ccc2[nH]ncc2c1-c1nc(-c2ccc(F)cc2Nc2nccnc2C#N)nc(C(N)=O)c1N` [Compound 701], the IC50 was determined as 25 nM. For the compound `Cc1ccc2[nH]ncc2c1-c1nc(-c2cc(F)cnc2NCC(C)(C)C#N)nc(C(N)=O)c1N` [Compound 702], the IC50 turned out to be 14 nM.

On to `Cc1ccc2[nH]ncc2c1-c1nc(-c2cccnc2NCCN2CCOCC2)nc(C(N)=O)c1N` [Compound 703], for which the IC50 was found to be 680 nM. As for `Cc1ccc2[nH]ncc2c1-c1nc(-c2cc(F)cnc2N[C@H]2C[C@@H](O)C2)nc(C(N)=O)c1N` [Compound 704], the IC50 came out at 17 nM. On to `Cc1ccc2[nH]ncc2c1-c1nc(-c2cc(F)cnc2NCC2(C#N)CC2)nc(C(N)=O)c1N` [Compound 705], for which the IC50 stood at 33 nM.

As to `Cc1ccc2[nH]ncc2c1-c1nc(-c2ccc(F)cc2Nc2cncc(C#N)n2)nc(C(N)=O)c1N` [Compound 706], the IC50 is 56 nM.

As to `Cc1ccc(C)c(Nc2ncccc2-c2nc(C(N)=O)c(N)c(-c3c(C)ccc4[nH]ncc34)n2)n1` [Compound 707], the concentration for half-maximal inhibition (IC50) stood at 38 nM.

For the compound `COc1ccc(-c2nc(C(N)=O)c(N)c(-c3c(C)ccc4[nH]ncc34)n2)c(Nc2ncccc2C)n1` [Compound 709], the IC50 is 18 nM. Next, `Cc1ccc2[nH]ncc2c1-c1nc(-c2cc(F)cnc2N[C@@H](C)C2CC2)nc(C(N)=O)c1N` [Compound 710]: 19 nM. Consider `Cc1ccc2[nH]ncc2c1-c1nc(-c2cc(F)cnc2N[C@H]2CCOC2)nc(C(N)=O)c1N` [Compound 711], for which the IC50 amounted to 14 nM. The figure for `Cc1ccc2[nH]ncc2c1-c1nc(-c2cc(F)cnc2NC2COC2)nc(C(N)=O)c1N` [Compound 712] is 66 nM. The figure for `Cc1ccc2[nH]ncc2c1-c1nc(-c2cc(F)cnc2NC2CC3(COC3)C2)nc(C(N)=O)c1N` [Compound 713] is more than 10000 nM; for `Cc1ncc(F)c(Nc2cc(F)ccc2-c2nc(C(N)=O)c(N)c(-c3c(C)ccc4[nH]ncc34)n2)n1` [Compound 714] it is 13 nM; for `Cc1ccc(F)c(Nc2ncc(F)cc2-c2nc(C(N)=O)c(N)c(-c3c(C)ccc(O)c3C)n2)n1` [Compound 715, 5-amino-2-[5-fluoro-2-[(3-fluoro-6-methyl-2-pyridyl)amino]-3-pyridyl]-6-(3-hydroxy-2,6-dimethyl-phenyl)pyrimidine-4-carboxamide] it is 9 nM. Regarding `Cc1ccc(Cl)c(Nc2ncccc2-c2nc(C(N)=O)c(N)c(-c3c(C)ccc4[nH]ncc34)n2)n1` [Compound 716], the IC50 is 13 nM. The figure for `Cc1ccc2[nH]ncc2c1-c1nc(-c2cccnc2Nc2cncnc2C)nc(C(N)=O)c1N` [Compound 717] is 216 nM. Consider `Cc1cnc(C)c(Nc2ncccc2-c2nc(C(N)=O)c(N)c(-c3c(C)ccc4[nH]ncc34)n2)n1` [Compound 718], for which the IC50 is 39 nM. On to `Cc1cnc(C)c(Nc2cc(F)ccc2-c2nc(C(N)=O)c(N)c(-c3c(C)ccc4[nH]ncc34)n2)n1` [Compound 719], for which the IC50 was 55 nM. Next, `Cc1ccc2[nH]ncc2c1-c1nc(-c2cccnc2Nc2ncccc2C(F)F)nc(C(N)=O)c1N` [Compound 720]: 7 nM; `Cc1ccc(-c2nc(C(N)=O)c(N)c(-c3c(C)ccc4[nH]ncc34)n2)c(Nc2nccnc2Cl)n1` [Compound 721]: 4 nM. The figure for `Cc1ccc2[nH]ncc2c1-c1nc(-c2cc(F)cnc2N[C@H]2CC[C@](C)(O)CC2)nc(C(N)=O)c1N` [Compound 722] is 232 nM; for `Cc1ccc2[nH]ncc2c1-c1nc(-c2cc(F)cnc2N[C@H]2CC[C@@](C)(O)CC2)nc(C(N)=O)c1N` [Compound 723] it is 22 nM; for `Cc1ccc(F)nc1Nc1ncccc1-c1nc(C(N)=O)c(N)c(-c2c(C)ccc3[nH]ncc23)n1` [Compound 724] it is 13 nM.

In the case of `Cc1ccc(-c2nc(C(N)=O)c(N)c(-c3c(C)ccc4[nH]ncc34)n2)c(Nc2cncc(Cl)n2)n1` [Compound 725], the IC50 amounted to 474 nM. Next, `Cc1ccc2[nH]ncc2c1-c1nc(-c2cccnc2Nc2ncccn2)nc(C(N)=O)c1N` [Compound 726]: 120 nM; `Cc1ccc(O)c(C)c1-c1nc(-c2cccnc2Nc2nccnc2C)nc(C(N)=O)c1N` [Compound 727, 5-amino-6-(3-hydroxy-2,6-dimethylphenyl)-2-(2-((3-methylpyrazin-2-yl)amino)pyridin-3-yl)pyrimidine-4-carboxamide]: 3 nM.
